From patent publication US12565522B2, “Micropeptide HMMW and application thereof” (NANJING ANJI BIOTECHNOLOGY CO., LTD., priority 2019, dated 2026)
No end group written: not given here.

Columns and labels:
Assay type in all cases: cell-based, human
[1] = test system: UOK262 cells of kidney cancer; assay: transwell migration test; settings: 24 h
[2] = test system: MGC803 cells of stomach cancer; assay: transwell migration test; settings: 24 h
[3] = test system: A431 cells of skin cancer; assay: transwell migration test; settings: 24 h
[4] = test system: SW579 cells of thyroid cancer; assay: transwell migration test; settings: 24 h
[5] = test system: SCC4 cells of head and neck cancer; assay: transwell migration test; settings: 24 h
[6] = test system: A549 cells of lung cancer; assay: transwell migration test; settings: 24 h
[7] = test system: TE13 cells of esophageal squamous cell carcinoma; assay: transwell migration test; settings: 24 h
[8] = test system: UOK262 cells of kidney cancer; assay: cells; settings: 1 to 32 μM, vs negative control, dose-dependent
Method: (§1) After SCC4 cells of head and neck cancer, SW579 cells of thyroid cancer, A549 cells of lung cancer, TE13 cells of esophageal squamous cell carcinoma, MGC803 cells of stomach cancer, MDA-MB-231 cells of breast cancer, UOK262 cells of kidney cancer and A431 cells of skin cancer of human were cultured in a 37 DEG C. 5% CO2 incubator until the density was 90%, they were digested and collected by trypsin, the cells were re-suspended in a culture solution and counted under a microscope, the concentration of the cells was adjusted to 3.0×10^4 cells/mL, and the cell suspension was inoculated to 96-well plates, 100 μL per well, and cultured in a 37 DEG C. 5% CO2 incubator overnight. After the cells were completely adherent, different doses of micropeptides HMMW I to IX were added as drug groups, taxol was used as a positive control group, and the culture solution without any drug was used as a blank control group. They were diluted with the culture solution till predetermined concentrations. The diluted solutions were added to 96-well plates, respectively, 100 μL per well, and incubated in a 37 DEG C. 5% CO2 incubator for 48 h. 20 μL of 5 mg/mL MTT was added to each well of the 96-well plates, and the culture was continued for 4 h. The culture medium was sucked away, and 100 μL of DMSO was added to each well for dissolution. Absorbance was detected by ELIASA at detection wavelength 570 nm and reference wavelength 630 nm, and proliferation inhibition (PI) was calculated according to Formula PI (%)=1−drug group/negative group. The test was independently repeated three times. The results obtained from the test were expressed with mean±SD and statistical t test was done. *P<0.05 means significant difference, and **P<0.01 means very significant difference.

[9] = test system: MGC803 cells of stomach cancer; assay: cells; settings: 1 to 32 μM, vs negative control, dose-dependent
Method: as §1

[10] = test system: A431 cells of skin cancer; assay: cells; settings: 1 to 32 μM, vs negative control, dose-dependent
Method: as §1

[11] = test system: SW579 cells of thyroid cancer; assay: cells; settings: 1 to 32 μM, vs negative control, dose-dependent
Method: as §1

[12] = test system: MDA-MB-231 cells of breast cancer; assay: cells; settings: 1 to 32 μM, vs negative control, dose-dependent
Method: as §1

[13] = test system: SCC4 cells of head and neck cancer; assay: cells; settings: 1 to 32 μM, vs negative control, dose-dependent
Method: as §1

[14] = test system: A549 cells of lung cancer; assay: cells; settings: 1 to 32 μM, vs negative control, dose-dependent
Method: as §1

[15] = test system: TE13 cells of esophageal squamous cell carcinoma; assay: cells; settings: 1 to 32 μM, vs negative control, dose-dependent
Method: as §1

“MERAGVPGFSPRRSSVEAKMQSTSCSVRKSSTVTAWPAVVLLLSWGQRRGG-OH [HMMW-I]” was tested. Which migration inhibition rate ([1]; dose 1 μM) did it give?
Its migration inhibition rate is 15.39%.

What about the migration inhibition rate ([1]; dose 4 μM) of the same substance?
The migration inhibition rate was 42.38%.

And the migration inhibition rate ([1]; dose 16 μM)?
The migration inhibition rate was 71.47%.

What about the migration inhibition rate ([2]; dose 1 μM) of the same substance?
The migration inhibition rate was 27.61%.

And the migration inhibition rate ([2]; dose 4 μM)?
Its migration inhibition rate is 53.45%.

And the migration inhibition rate ([2]; dose 16 μM)?
The migration inhibition rate was 76.80%.

What about the migration inhibition rate ([3]; dose 1 μM) of the same substance?
The migration inhibition rate was 33.19%.

And the migration inhibition rate ([3]; dose 4 μM)?
Its migration inhibition rate is 55.17%.

What about the migration inhibition rate ([3]; dose 16 μM) of the same substance?
Its migration inhibition rate is 73.22%.

And the migration inhibition rate ([4]; dose 1 μM)?
The migration inhibition rate was 19.81%.

And the migration inhibition rate ([4]; dose 4 μM)?
Its migration inhibition rate is 51.03%.

And the migration inhibition rate ([4]; dose 16 μM)?
The migration inhibition rate was 70.98%.

What about the migration inhibition rate ([5]; dose 1 μM) of the same substance?
Its migration inhibition rate is 17.85%.

And the migration inhibition rate ([5]; dose 4 μM)?
The migration inhibition rate was 42.97%.

What about the migration inhibition rate ([5]; dose 16 μM) of the same substance?
The migration inhibition rate was 77.00%.

What about the migration inhibition rate ([6]; dose 1 μM) of the same substance?
Its migration inhibition rate is 35.00%.

And the migration inhibition rate ([6]; dose 4 μM)?
The migration inhibition rate was 53.95%.

And the migration inhibition rate ([6]; dose 16 μM)?
The migration inhibition rate was 73.46%.

And the migration inhibition rate ([7]; dose 1 μM)?
The migration inhibition rate was 23.76%.

And the migration inhibition rate ([7]; dose 4 μM)?
Its migration inhibition rate is 42.29%.

What about the migration inhibition rate ([7]; dose 16 μM) of the same substance?
The migration inhibition rate was 68.32%.

What about the “inhibition of proliferation” value [8] of the same substance?
Its value is “significantly inhibit”.

And the “inhibition of proliferation” value [9]?
The value was “significantly inhibit”.

What about the “inhibition of proliferation” value [10] of the same substance?
Its value is “significantly inhibit”.

What about the “inhibition of proliferation” value [11] of the same substance?
Its value is “significantly inhibit”.

What about the “inhibition of proliferation” value [12] of the same substance?
Its value is “significantly inhibit”.

What about the “inhibition of proliferation” value [13] of the same substance?
Its value is “significantly inhibit”.

And the “inhibition of proliferation” value [14]?
The value was “significantly inhibit”.

What about the “inhibition of proliferation” value [15] of the same substance?
The value was “significantly inhibit”.
